These results are taken from patent US12122761B2, “2-azaspiro[3.4]octane derivatives as M4 agonists” (NOVARTIS AG, priority 2019, dated 2024).

Test [1] addresses T1, human cloned CHRM4 receptor (M4_CHO cells) (Homo sapiens, UniProt P08173).
T1 construct: expressed in transfected cells; host or cells: CHO-K1
T1 sequence (P08173 1-479): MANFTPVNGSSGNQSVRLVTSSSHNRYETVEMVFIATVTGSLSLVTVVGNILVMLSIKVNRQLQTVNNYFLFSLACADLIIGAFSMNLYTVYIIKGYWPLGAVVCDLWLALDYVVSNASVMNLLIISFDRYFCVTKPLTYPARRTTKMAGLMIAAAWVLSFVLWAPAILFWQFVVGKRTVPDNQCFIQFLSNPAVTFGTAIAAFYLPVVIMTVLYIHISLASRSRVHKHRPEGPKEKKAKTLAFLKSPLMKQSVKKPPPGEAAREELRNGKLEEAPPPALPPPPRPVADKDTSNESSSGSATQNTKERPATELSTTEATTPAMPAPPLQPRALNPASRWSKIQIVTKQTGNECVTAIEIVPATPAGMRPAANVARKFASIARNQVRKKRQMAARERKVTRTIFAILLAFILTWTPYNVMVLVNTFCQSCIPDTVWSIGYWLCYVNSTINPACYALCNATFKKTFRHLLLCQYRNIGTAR
As to the kind of experiment: CHRM4 Ca++ Flux Assay (agonist mode, FDSS 7000EX). The settings on record: for Emax: Percent Activity, read-out: M4 FDSS PA; for EC50: geometric mean if tested more than once, read-out: M4 FDSS EC50. It counts as cell-based. In a few lines:
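Agonist-mode response was expressed as percent of the Carbachol EC100 and fitted with four-parameter nonlinear regression over an 11-point triplicate dose series. Intracellular Ca++ was tracked for 3 min by fluorescent dye in CHO-K1 cells stably expressing human CHRM4. Cells were preincubated 60 min with 20 μM ATP in buffer containing 2.5 mM probenecid.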

The target of test [2] is T2, human cloned CHRM3 receptor (M3_CHO cells) (Homo sapiens, UniProt P20309).
T2 construct: expressed in transfected cells; host or cells: CHO-K1
T2 sequence (P20309 whole entry): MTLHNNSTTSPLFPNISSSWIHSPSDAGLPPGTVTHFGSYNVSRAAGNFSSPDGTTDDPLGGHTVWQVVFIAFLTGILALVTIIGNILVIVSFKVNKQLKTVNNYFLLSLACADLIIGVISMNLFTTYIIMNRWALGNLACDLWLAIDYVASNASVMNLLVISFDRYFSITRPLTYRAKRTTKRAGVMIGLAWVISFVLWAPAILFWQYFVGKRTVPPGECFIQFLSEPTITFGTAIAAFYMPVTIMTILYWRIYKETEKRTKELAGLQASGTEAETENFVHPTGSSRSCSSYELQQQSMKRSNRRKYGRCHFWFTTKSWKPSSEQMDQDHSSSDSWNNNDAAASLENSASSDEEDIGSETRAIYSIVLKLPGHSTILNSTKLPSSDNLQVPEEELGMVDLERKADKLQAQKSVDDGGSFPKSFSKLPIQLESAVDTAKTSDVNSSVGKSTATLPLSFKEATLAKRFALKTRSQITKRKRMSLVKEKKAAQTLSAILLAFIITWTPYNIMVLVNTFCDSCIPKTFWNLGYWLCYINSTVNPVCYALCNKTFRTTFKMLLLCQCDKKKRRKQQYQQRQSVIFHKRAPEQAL
The test is described as follows: CHRM3 Ca++ Flux Assay (agonist mode, FDSS 7000EX). Format: cell-based. The settings on record: for Emax: Percent Activity measured to EC100 of Carbachol, read-out: M3 FDSS PA; for EC50: agonist mode, geometric mean if tested more than once, read-out: M3 FDSS EC50. In a few lines: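 Stable CHO-K1 lines (human M3 or M5), calcium-dye loaded ≥1 h, assayed in Ca/Mg-free HBSS + 20 mM HEPES + 2.5 mM probenecid. 11-pt dose response, triplicate, 3 min fluorescence read. 4-parameter regression; % activity vs carbachol EC100.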

For `COc1ccccc1C1CCN([C@@H]2CCC3(C2)CN(c2ccc(Cl)nn2)C3)CC1` [Example 5N, (R)-2-(6-chloropyridazin-3-yl)-6-(4-(2-methoxyphenyl)piperidin-1-yl)-2-azaspiro[3.4]octane], in test [1], the Emax is 50% and the EC50 came out at 26 nM. In test [2], the Emax was 9% and the 50% effective concentration (EC50) worked out at 11300 nM.
For `COc1ccccc1C1CCN([C@@H]2CCC3(C2)CN(c2cccnn2)C3)CC1` [Example 5O, (R)-6-(4-(2-methoxyphenyl)piperidin-1-yl)-2-(pyridazin-3-yl)-2-azaspiro[3.4]octane], in test [1], the Emax stood at 39% and the EC50 was found to be 55 nM. Moreover, in test [2], the Emax came out at 0% and the EC50 was over 25000 nM.
For `COc1ccc(Cl)cc1C1CCN([C@@H]2CCC3(C2)CN(c2ccnnc2)C3)CC1` [Example 5P, (R)-6-(4-(5-chloro-2-methoxyphenyl)piperidin-1-yl)-2-(pyridazin-4-yl)-2-azaspiro[3.4]octane] the same measures were 55%, 43 nM, 0% and over 25000 nM.
Taken in the same sequence, the figures for `c1ccc(C2CCN([C@@H]3CCC4(C3)CN(c3ncncn3)C4)CC2)c(OCC2CCOCC2)c1` [Example 5Q, (R)-6-(4-(2-((tetrahydro-2H-pyran-4-yl)methoxy)phenyl)piperidin-1-yl)-2-(1,3,5-triazin-2-yl)-2-azaspiro[3.4]octane] were 54%, 21 nM, 0% and over 25000 nM.
Taken in the same sequence, the figures for `COc1ccccc1C1CCN([C@@H]2CCC3(C2)CN(c2cc(Cl)nnc2Cl)C3)CC1` [Example 5R, (R)-2-(3,6-dichloropyridazin-4-yl)-6-(4-(2-methoxyphenyl)piperidin-1-yl)-2-azaspiro[3.4]octane] were 51%, 131 nM, 0% and over 25000 nM.
As for `COc1ccccc1C1CCN([C@@H]2CCC3(C2)CN(c2ccnnc2)C3)CC1` [Example 5S, (R)-6-(4-(2-methoxyphenyl)piperidin-1-yl)-2-(pyridazin-4-yl)-2-azaspiro[3.4]octane], the Emax in test [1] was determined as 55%; in test [2], 0%. Also, the EC50 in test [1] was 129 nM; in test [2], over 25000 nM.

As a reminder, the EC50 is the concentration that produces a half-maximal response.
